Data: patent US12371428B2 (Exelixis, Inc., priority 2019, dated 2025)
Where a name gives a salt, the structure may show the parent alone.

How the values were obtained:
[1] = molecular target: Human MET (residues 956-1390) (Homo sapiens (Human), UniProt P08581); test: Human Met kinase assay, HTRF KinEase (Example D-2); assay type: biochemical; conditions: protocol of Example D-2 (other compounds); read-out: c-Met IC50
Procedure, shortened: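 HTRF KinEase assay on MET residues 956-1390 (0.1 ng/well) in buffer with 5 mM MgCl2, 1 mM DTT and 1 mM MnCl2, with biotinylated peptide substrate, ATP at Km, 10 compound concentrations and 3% DMSO final, run 40 min at room temperature. The […] signal was normalized to DMSO and to 1 μM reference compound, and IC50 came from a 4-parameter logistic fit.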

[2] = molecular target: KDR (phospho-KDR, VEGF165-stimulated HUVEC cells) (Homo sapiens (Human), UniProt P35968); test: KDR autophosphorylation ELISA in HUVEC cells (Example G); assay type: cell-based; conditions: cellular activity; KDR autophosphorylation ELISA in HUVEC cells
KDR (phospho-KDR, VEGF165-stimulated HUVEC cells), sequence (P35968 20-1356): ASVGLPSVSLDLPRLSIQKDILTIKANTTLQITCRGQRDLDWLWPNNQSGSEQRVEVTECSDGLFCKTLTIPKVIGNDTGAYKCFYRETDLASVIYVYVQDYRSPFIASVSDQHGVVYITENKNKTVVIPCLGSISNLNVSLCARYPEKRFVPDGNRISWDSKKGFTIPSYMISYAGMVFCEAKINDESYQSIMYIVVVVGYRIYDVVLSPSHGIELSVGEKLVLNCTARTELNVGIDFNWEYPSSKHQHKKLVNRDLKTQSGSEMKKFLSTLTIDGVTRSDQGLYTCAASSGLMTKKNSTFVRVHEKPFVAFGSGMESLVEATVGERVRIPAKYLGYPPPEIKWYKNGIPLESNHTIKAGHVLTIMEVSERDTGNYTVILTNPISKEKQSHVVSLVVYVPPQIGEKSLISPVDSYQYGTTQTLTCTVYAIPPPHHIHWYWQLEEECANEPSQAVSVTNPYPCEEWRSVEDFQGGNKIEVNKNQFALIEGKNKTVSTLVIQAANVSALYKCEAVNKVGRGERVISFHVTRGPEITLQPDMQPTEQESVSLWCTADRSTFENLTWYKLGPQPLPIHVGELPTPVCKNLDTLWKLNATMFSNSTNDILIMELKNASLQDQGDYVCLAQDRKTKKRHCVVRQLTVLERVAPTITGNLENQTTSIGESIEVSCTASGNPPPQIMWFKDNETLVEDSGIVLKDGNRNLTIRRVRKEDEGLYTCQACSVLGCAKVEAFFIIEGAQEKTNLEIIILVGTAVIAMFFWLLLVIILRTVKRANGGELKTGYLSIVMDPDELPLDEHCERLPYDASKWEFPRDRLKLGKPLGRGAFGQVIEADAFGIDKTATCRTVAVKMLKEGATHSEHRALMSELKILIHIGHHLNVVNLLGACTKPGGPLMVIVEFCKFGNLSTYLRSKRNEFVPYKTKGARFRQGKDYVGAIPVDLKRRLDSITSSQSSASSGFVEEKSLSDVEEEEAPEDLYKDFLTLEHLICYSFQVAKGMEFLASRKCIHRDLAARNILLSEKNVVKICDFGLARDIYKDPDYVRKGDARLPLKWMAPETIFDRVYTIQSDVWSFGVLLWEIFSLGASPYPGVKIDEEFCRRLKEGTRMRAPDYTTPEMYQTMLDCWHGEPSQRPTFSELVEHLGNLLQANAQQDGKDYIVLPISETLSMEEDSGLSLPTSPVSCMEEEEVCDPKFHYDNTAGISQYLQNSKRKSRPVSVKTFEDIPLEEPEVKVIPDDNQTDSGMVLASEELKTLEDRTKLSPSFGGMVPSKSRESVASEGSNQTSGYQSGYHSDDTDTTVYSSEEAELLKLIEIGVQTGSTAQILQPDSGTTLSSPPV
Procedure, shortened: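 Inhibition of VEGF165-driven KDR autophosphorylation is measured in primary human umbilical vein endothelial cells after 24 h serum deprivation. Compound preincubation lasts 1 h before a 5-minute challenge with 100 ng/mL ligand, and phosphorylated receptor is then measured by ELISA in the lysates.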

Human MET (residues 956-1390), sequence (P08581 956-1390): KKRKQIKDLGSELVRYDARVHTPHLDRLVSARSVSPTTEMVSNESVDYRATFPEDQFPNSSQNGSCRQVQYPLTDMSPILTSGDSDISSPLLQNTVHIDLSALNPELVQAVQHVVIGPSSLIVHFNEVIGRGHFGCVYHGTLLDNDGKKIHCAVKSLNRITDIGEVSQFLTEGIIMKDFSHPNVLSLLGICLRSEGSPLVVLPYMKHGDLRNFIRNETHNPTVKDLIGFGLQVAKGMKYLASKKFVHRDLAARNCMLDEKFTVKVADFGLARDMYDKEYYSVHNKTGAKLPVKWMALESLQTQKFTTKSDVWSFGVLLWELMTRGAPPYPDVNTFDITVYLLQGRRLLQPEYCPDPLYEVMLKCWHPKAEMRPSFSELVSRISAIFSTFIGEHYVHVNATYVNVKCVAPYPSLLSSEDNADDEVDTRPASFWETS

Compound | IC50 [1] | IC50 [2]
COc1cc2nccc(Oc3ccc(NC(=O)c4cn(C)cc(-c5ccccc5)c4=O)cc3)c2nc1OC [Compound 39, N-[4-[(6,7-Dimethoxy-1,5-naphthyridin-4-yl)oxy]phenyl]-1-methyl-4-oxo-5-phenylpyridine-3-carboxamide hydrochloride] | < 100 nM | < 100 nM
COc1cnc2c(Oc3ccc(NC(=O)c4cn(C)cc(-c5ccccc5)c4=O)cc3F)ccnc2c1 [Compound 40, N-[3-Fluoro-4-[(7-methoxy-1,5-naphthyridin-4-yl)oxy]phenyl]-1-methyl-4-oxo-5-phenylpyridine-3-carboxamide hydrochloride] | < 100 nM | < 100 nM
CCn1cc(C(=O)Nc2ccc(Oc3ccnc4cc(OC)c(OC)nc34)c(F)c2)c(=O)c(-c2ccc(F)cc2C)c1CO [Compound 283, N-[4-[(6,7-Dimethoxy-1,5-naphthyridin-4-yl)oxy]-3-fluorophenyl]-1-ethyl-5-(4-fluoro-2-methylphenyl)-6-(hydroxymethyl)-4-oxopyridine-3-carboxamide] | < 100 nM | 100 to 300 nM
COc1ccc2nccc(Oc3ccc(NC(=O)c4cnc(C)c(-c5ccc(F)cc5)c4O)cc3)c2n1 [Compound 342, 5-(4-fluorophenyl)-4-hydroxy-N-[4-[(6-methoxy-1,5-naphthyridin-4-yl)oxy]phenyl]-6-methylpyridine-3-carboxamide] | < 100 nM | < 100 nM
COCc1c(-c2ccc(F)cc2)c(=O)c(C(=O)Nc2ccc(Oc3ccnc4cc(OC)c(OC)nc34)c(F)c2)cn1C [Compound 269, N-[4-[(6,7-Dimethoxy-1,5-naphthyridin-4-yl)oxy]-3-fluorophenyl]-5-(4-fluorophenyl)-6-(methoxymethyl)-1-methyl-4-oxopyridine-3-carboxamide] | < 100 nM | > 300 nM
COCc1ncc(C(=O)Nc2ccc(Oc3ccnc4cc(OC)c(OC)nc34)c(F)c2)c(O)c1-c1ccc(F)cc1 [Compound 301, N-[4-[(6,7-Dimethoxy-1,5-naphthyridin-4-yl)oxy]-3-fluorophenyl]-5-(4-fluorophenyl)-4-hydroxy-6-(methoxymethyl)pyridine-3-carboxamide] | < 100 nM | < 100 nM
CCn1cc(C(=O)Nc2ccc(Oc3ccnc4cc(OC)c(OC)nc34)cc2)c(=O)c(-c2ccc(F)cc2C)c1CO [Compound 284, N-[4-[(6,7-Dimethoxy-1,5-naphthyridin-4-yl)oxy]phenyl]-1-ethyl-5-(4-fluoro-2-methylphenyl)-6-(hydroxymethyl)-4-oxopyridine-3-carboxamide] | < 100 nM | > 300 nM
COc1ccc2nccc(Oc3ccc(NC(=O)c4c(C)cc(C)n(-c5ccc(F)cc5C)c4=O)cc3F)c2n1 [Compound 296, N-[3-Fluoro-4-[(6-methoxy-1,5-naphthyridin-4-yl)oxy]phenyl]-1-(4-fluoro-2-methylphenyl)-4,6-dimethyl-2-oxopyridine-3-carboxamide] | 100 to 300 nM | < 100 nM
COc1ccc2nccc(Oc3ccc(NC(=O)c4c(C)cc(C)n(-c5ccc(F)cc5)c4=O)cc3)c2n1 [Compound 290, 1-(4-Fluorophenyl)-N-[4-[(6-methoxy-1,5-naphthyridin-4-yl)oxy]phenyl]-4,6-dimethyl-2-oxopyridine-3-carboxamide] | 100 to 300 nM | < 100 nM
COc1ccc2nccc(Oc3ccc(NC(=O)c4c(C)cc(C)n(-c5ccc(F)cc5)c4=O)cc3F)c2n1 [Compound 281, N-[3-Fluoro-4-[(6-methoxy-1,5-naphthyridin-4-yl)oxy]phenyl]-1-(4-fluorophenyl)-4,6-dimethyl-2-oxopyridine-3-carboxamide] | < 100 nM | < 100 nM
Cc1ccc(C(=O)Nc2ccc(Oc3ccnc4ccc(OCCN5CCOCC5)nc34)c(F)c2)c(=O)n1-c1ccc(F)cc1 [Compound 351, N-[3-fluoro-4-[[6-(2-morpholin-4-ylethoxy)-1,5-naphthyridin-4-yl]oxy]phenyl]-1-(4-fluorophenyl)-6-methyl-2-oxopyridine-3-carboxamide] | < 100 nM | < 100 nM
COc1ccc2nccc(Oc3ccc(NC(=O)c4cn(C(C)C)c(C)c(-c5ccc(F)cc5)c4=O)cc3)c2n1 [Compound 341, 5-(4-fluorophenyl)-N-[4-[(6-methoxy-1,5-naphthyridin-4-yl)oxy]phenyl]-6-methyl-4-oxo-1-propan-2-ylpyridine-3-carboxamide] | < 100 nM | > 300 nM
CCn1cc(C(=O)Nc2ccc(Oc3ccnc4cc(OC)cnc34)c(F)c2)c(=O)c(-c2ccc(F)cc2C)c1CO [Compound 285, 1-Ethyl-N-[3-fluoro-4-[(7-methoxy-1,5-naphthyridin-4-yl)oxy]phenyl]-5-(4-fluoro-2-methylphenyl)-6-(hydroxymethyl)-4-oxopyridine-3-carboxamide] | < 100 nM | > 300 nM
COc1cc2nccc(Oc3ccc(NC(=O)c4c(C)ccn(-c5ccc(F)cc5)c4=O)cc3F)c2nc1OC [Compound 286, N-[4-[(6,7-Dimethoxy-1,5-naphthyridin-4-yl)oxy]-3-fluorophenyl]-1-(4-fluorophenyl)-4-methyl-2-oxopyridine-3-carboxamide] | < 100 nM | < 100 nM

The next lines start with the values.

IC50 [1] | IC50 [2] | Compound
< 100 nM | < 100 nM | COc1cc2nccc(Oc3ccc(NC(=O)c4nccn(-c5ccc(F)cc5)c4=O)cc3F)c2nc1OC [Compound 379, N-[4-[(6,7-dimethoxy-1,5-naphthyridin-4-yl)oxy]-3-fluorophenyl]-4-(4-fluorophenyl)-3-oxopyrazine-2-carboxamide]
< 100 nM | > 300 nM | COc1cc2nccc(Oc3ccc(NC(=O)C4=C5CCCN5CC(c5ccc(F)cc5)C4=O)cc3F)c2nc1OC (single isomer, unassigned; enantiomer 1) [Compound 374, N-[4-[(6,7-dimethoxy-1,5-naphthyridin-4-yl)oxy]-3-fluorophenyl]-6-(4-fluorophenyl)-7-oxo-2,3,5,6-tetrahydro-1H-indolizine-8-carboxamide, enantiomer 1]
< 100 nM | < 100 nM | Cc1ccc(C(=O)Nc2ccc(Oc3ccnc4ccc(OCCN(C)C)nc34)c(F)c2)c(=O)n1-c1ccc(F)cc1 [Compound 353, N-[4-[[6-[2-(dimethylamino)ethoxy]-1,5-naphthyridin-4-yl]oxy]-3-fluorophenyl]-1-(4-fluorophenyl)-6-methyl-2-oxopyridine-3-carboxamide]
< 100 nM | < 100 nM | Cc1ncc(C(=O)Nc2ccc(Oc3ccnc4ccc(OCCN5CCOCC5)nc34)c(F)c2)c(O)c1-c1ccc(F)cc1 [Compound 352, N-[3-fluoro-4-[[6-(2-morpholin-4-ylethoxy)-1,5-naphthyridin-4 yl]oxy]phenyl]-5-(4-fluorophenyl)-4-hydroxy-6-methylpyridine-3-carboxamide]
< 100 nM | > 300 nM | COc1cc2nccc(Oc3ncc(NC(=O)c4cn(C5CN(C)C5)cc(-c5ccc(F)cc5)c4=O)cc3F)c2cc1OC [Compound 400, N-[6-(6,7-dimethoxyquinolin-4-yl)oxy-5-fluoropyridin-3-yl]-5-(4-fluorophenyl)-1-(1-methylazetidin-3-yl)-4-oxopyridine-3-carboxamide]
< 100 nM | < 100 nM | Cc1nc(C)c(-c2ccc(F)cc2)c(O)c1C(=O)Nc1ccc(Oc2ccnc3ccc(OCCN4CCOCC4)nc23)c(F)c1 [Compound 355, N-[3-fluoro-4-[[6-(2-morpholin-4-ylethoxy)-1,5-naphthyridin-4-yl)oxy]phenyl]-5-(4-fluorophenyl)-4-hydroxy-2,6-dimethylpyridine-3-carboxamide]
< 100 nM | > 300 nM | COc1ccc2nccc(Oc3ccc(NC(=O)c4ncc(C)n(-c5ccc(F)cc5C)c4=O)cc3F)c2n1 [Compound 394, N-[3-fluoro-4-[(6-methoxy-1,5-naphthyridin-4-yl)oxy]phenyl]-4-(4-fluoro-2-methylphenyl)-5-methyl-3-oxopyrazine-2-carboxamide]
100 to 300 nM | < 100 nM | Cc1ncc(C(=O)Nc2ccc(Oc3ccnc4cc(-c5cnn(C(F)F)c5)ccc34)cc2)c(O)c1-c1ccc(F)cc1 [Compound 377, N-[4-[7-[1-(difluoromethyl)pyrazol-4-yl]quinolin-4-yl]oxyphenyl]-5-(4-fluorophenyl)-4-hydroxy-6-methylpyridine-3-carboxamide]
< 100 nM | < 100 nM | COc1cc2nccc(Oc3ccc(NC(=O)c4ccnn(-c5ccc(F)cc5)c4=O)cc3F)c2nc1OC [Compound 386, N-[4-[(6,7-dimethoxy-1,5-naphthyridin-4-yl)oxy]-3-fluorophenyl]-2-(4-fluorophenyl)-3-oxopyridazine-4-carboxamide]
< 100 nM | > 300 nM | COc1ccc2nccc(Oc3ccc(NC(=O)c4nccn(-c5ccc(F)cc5)c4=O)cc3)c2n1 [Compound 383, 4-(4-fluorophenyl)-N-[4-[(6-methoxy-1,5-naphthyridin-4-yl)oxy]phenyl]-3-oxopyrazine-2-carboxamide]
< 100 nM | < 100 nM | COc1cc2nccc(Oc3ccc(NC(=O)c4cc(C)c(C)n(-c5ccc(F)cc5)c4=O)cc3F)c2nc1OC [Compound 370, N-[4-[(6,7-dimethoxy-1,5-naphthyridin-4-yl)oxy]-3-fluorophenyl]-1-(4-fluorophenyl)-5,6-dimethyl-2-oxopyridine-3-carboxamide]
